We go through six molecules from ChEMBL document CHEMBL1158655, “Plant anticancer agents. IX. Constituents of Hyptis tomentosa” (1979).

The structures appear in SMILES notation. ≈ marks a conversion by molar mass, not a printed value. Some results are limits rather than exact numbers.

The test system of the assay is KB. Description: Cytotoxicity against human KB cells. In kind it is functional. The note with it: read-out: ED50 (the source's name).
In the case of `COc1ccc(-c2cc(=O)c3c(O)c(OC)c(OC)cc3o2)cc1O` [EUPATORIN], the EC50 is over 50 mg/L.

Take `COc1cc([C@@H]2c3cc4c(cc3C[C@H]3COC(=O)[C@@H]32)OCO4)cc(OC)c1OC` [DESOXYPODOPHYLLOTOXIN]: the EC50 stood at 0.032 mg/L (≈ 0.0803 µM).

Take `COc1ccc(-c2cc(=O)c3c(O)c(OC)c(OC)c(OC)c3o2)cc1` [GARDENIN B]: the EC50 turned out to be 6 mg/L (≈ 16.7 µM).

As to `c1cc2c(cc1[C@H]1OC[C@H]3[C@@H]1CO[C@@H]3c1ccc3c(c1)OCO3)OCO2` [SESAMIN], the EC50 is over 100 mg/L.

Consider `COc1ccc(-c2oc3c(OC)c(OC)c(OC)c(O)c3c(=O)c2OC)cc1` [5-HYDROXYAURANETIN], for which the EC50 amounted to 1.8 mg/L (≈ 4.63 µM).

Take `COc1ccc(-c2cc(=O)c3c(O)c(OC)c(OC)cc3o2)cc1OC`: the EC50 was over 100 mg/L.
